One series in a line: Iodine content of acid. The series is classed as physicochemical. The following applies: of the free acid.
The subject of series [1] is Rat. The series is described as follows: Neural compatibility after intracisternal injection in rats (24 h observation; ED50 = toxic effects in 50% of the animals). The following applies: intracisternally, meglumine salt in water, probit analysis. It counts as in vivo. As to the method: (§1) Table I presents a comparison of the conventional contrast media iothalamic acid (E) and diatrizoic acid (F) with 5-Carbamoyl-3-N-methylcarbamoyl-2,4,6-triiodobenzoic acid (D) of this invention, in terms of neural compatibility after intracerebral or intracisternal administration, as well as their general compatibility.
(§2) The compounds are administered, as meglumine salts dissolved in water, to 10 rats each in varying doses. After intracerebral and intracisternal injection, the animals are observed for 24 hours; the ED50 is denoted as the dose causing toxic effects (strong behavioral anomalies and disturbances in motor coordination, convulsions, or death) in 50% of the animals. After intravenous injection, the observation time was 7 days. ED50 and LD50 were calculated by probit analysis.

In series [2] the test system is Rat. The experiment in a line: General compatibility after intravenous injection in rats (7 days observation). It counts as in vivo. The settings on record: intravenously, meglumine salt in water, probit analysis. As to the method:
as §1, §2

Series [3] concerns Rat. The experiment in a line: Neural compatibility after intracerebral injection in rats (24 h observation; ED50 = toxic effects in 50% of the animals). The series is classed as in vivo. The settings on record: intracerebrally, meglumine salt in water, probit analysis. As to the method: as §1, §2

`CC(=O)Nc1c(I)c(NC(C)=O)c(I)c(C(=O)O)c1I` [F, diatrizoic acid]: the “Iodine content of acid” value in the series “Iodine content of acid” came to 62.1%. Also, the “ED50 (strong behavioral anomalies, disturbances in motor coordination, convulsions, or death)” value (“ED50” below) in the series with Rat [1] is 3.0 mg I/kg; in the series with Rat [3] it was 12 mg I/kg. In addition, the LD50 in the series with Rat [2] is given as 7.3 g I/kg.

Consider `CNC(=O)c1c(I)c(NC(C)=O)c(I)c(C(=O)O)c1I` [E, iothalamic acid], for which, in the series “Iodine content of acid”, the “Iodine content of acid” value is listed as 62.1%. The “ED50” value in the series with Rat [1] is reported as 10.6 mg I/kg; in the series with Rat [3] it was 36 mg I/kg. The LD50 in the series on Rat [1] amounted to 58 mg I/kg; with Rat [2], 7.4 g I/kg; in the series with Rat [3] it was 52 mg I/kg.

As for `CNC(=O)c1c(I)c(C(N)=O)c(I)c(C(=O)O)c1I` [D, 5-Carbamoyl-3-N-methylcarbamoyl-2,4,6-triiodobenzoic acid], the “Iodine content of acid” value in the series “Iodine content of acid” came out at 63.5%. Further, the figures for the “ED50” value in the series with Rat [1] and in the series on Rat [3] were 13.2 mg I/kg and 42 mg I/kg, respectively. The LD50 worked out at 65 mg I/kg with Rat [1], 8.7 g I/kg with Rat [2] and 66 mg I/kg with Rat [3].

For the origin of these results see US4328202A, “Ionic 5-C-substituted 2,4,6-triiodoisophthalic acid derivatives” (Schering, A.G., priority 1980, dated 1982).
